Measured values reported in US20230416307A1, “[…] PEPTIDES FOR ENHANCING VIRAL PRODUCTION” (Synvivia, Inc., priority 2022, published 2023).
Ends that are not written are not given here.

Assays:
[1] = system: AAV2-GFP; assay: Transduction efficiency (TU:VG ratio) of AAV2-GFP packaged in cells expressing a CP; assay type: cell-based, adeno-associated virus; settings: for transduction efficiency of AAV2-GFP produced in the presence of CP: FIG. 23, CP plasmid 0.3 ng to 100 ng, versus control without CP
Text: AAV2-GFP were harvested and assayed for biological and physical titer as described in FIG. 20
FIG. 24. […] This figure depicts the raw flow cytometry data used to determine the biological titer of AAV samples. This is an example of the data that was used to determine the biological titers in FIG. 23. The X-axis of each graph represents the forward light scattering (FSC) from flow cytometry. The Y-axis represents the GFP intensity of each cell. A 1000-fold dilution of AAV2-GFP particles produced either in the presence (A) or absence (B) of cyclic peptide were used to transduce HEK293 cells. A 1000-fold dilution of the preparation was used (e.g., without physical titer normalization) to ensure a direct, batch-to-batch comparison of the impact of cyclic peptide on viral packaging performance.
As used herein, the term “transduction efficiency” refers to the effectiveness (efficiency) of viral particles in delivering their genetic payload to the target cells. This efficiency may be represented by the transducing units to vector genomes ratio (TU:VG). Viral formulations with enhanced transduction efficiency can achieve greater numbers of DNA delivery events for the same number of DNA-containing viral particles. […] Enhanced transduction efficiency may be achieved by optimizing the cellular environment for viral production, leading to viral particles with improved capsid structure, viral particle biochemistry, or viral particle assembly. Increasing transduction efficiency refers to improvements in the TU:VG ratio, which encompasses both infectivity and biological titer.
• 1. A 100-mm cell culture dish was reseeded with 4.0×10^6 Hek293T cells in high glucose DMEM culture medium supplemented with 10% FBS. • 2. […] A jetOPTIMUS DNA transfection reagent i used during the transfection protocol (from Polyplus). • 3. 12-16 hours after transfection, media was replaced with low glucose DMEM culture medium supplemented with 1% FBS, 1×Glutamax, 10 mM HEPES, and 0.075% sodium bicarbonate. • 4. Cells and media were harvested 4 days after transfection and frozen in 1 mL aliquots. • 5. Frozen aliquots were thawed and lysed using AAVMax Lysis Reagent (Life Technologies, USA, A50520). 100 uL of AAVMax Lysis buffer was added to 900 uL of cell and media. Mixture was incubated for 2 hours with rotating. Debris was pelleted at 5,000xg for 15 minutes. AAV containing supernatant was collected. • 6. The physical and biological titers of the harvested AAV samples were determined by qPCR and biological viral titer measurement as described in Example 1.
Full, but non-functional viral particles represent a major manufacturing challenge for AAV gene therapies. At present, there is no process capable of purifying the functional viral particles from the full, but non-functional fraction.

[2] = system: Lentivirus; assay: Lentivirus particle (physical) titer by Lenti-X GoStix Plus after packaging with a CP generator plasmid; assay type: cell-based; settings: FIG. 25; generator plasmid 0.5, 5, 50 ng; normalised to six no-CP controls
Experimental: (§1) Cyclic peptides are used herein to improve viral titer and transduction efficiency during lentiviral production. Lentivirus was produced using Takara Bio lentivirus packaging kit either with (left panels) or without (right panels; bars labeled CTRL) a cyclic peptide generator plasmid. The cyclic peptides produced by different amounts (e.g., 0.5 ng, 5 ng and 50 ng) of corresponding generator plasmids were CSSLT (SEQ ID NO: 37), CGSTKS (SEQ ID NO: 43), CKYEE (SEQ ID NO: 40), CPYTD (SEQ ID NO: 44), CPLQVP (SEQ ID NO: 45). 5 ng plasmid experiment for CGSTKS (SEQ ID NO: 43) failed and is not shown. The virus was collected, and particle titers were enumerated using Takara Bio Lenti-X GoStix Plus quantitative lentiviral titer test. The biological titer was determined by transducing fresh HEK293 cells with the various lentiviral preparations (e.g., packaged with or without a cyclic peptide). The fold difference in particle titer and transduction unit titer is calculated by normalizing to the average of six control lentiviral transductions from packaging runs without cyclic peptide. The control (CTRL) conditions illustrate negligible noise.
This example illustrates methodologies for Cyclic peptide-enhanced lentiviral vector production. • 1) Cells were seeded at 4-5×10^6 cells per 10-cm plate, 24 hours prior to transfection, to achieve 80-90% confluence at the time of transfection. • 2) 7.0 μg of lentiviral vector plasmid DNA was diluted in sterile water to a volume of 600 μl along with a cyclic peptide generator that expresses a cyclic peptide. • 3) Titration of cyclic peptide plasmid DNA concentrations, from 0.5 ng to 50 ng, was used in this Example. However, the amount of required plasmid DNA depends on many factors, including the specific cyclic peptide being expressed, the cyclic peptide generator (e.g. more efficient cyclic peptide generators may need less DNA), and promoter strength (the pCMV promoter driving strong expression is used in this Example). • 4) Between 4-8 control conditions (depending on number of experimental conditions) were also prepared that are identical to the above, except that no cyclic peptide plasmid was added. • 5) This DNA was added to a tube of Lenti-X Packaging Single Shots and vortexed to mix. • 6) The mixture was incubated for 10 minutes at room temperature to allow the formation of nanoparticle complexes, then briefly centrifuged. • 7) The entire 600 μl of nanoparticle complex solution was added dropwise to the packaging cells, which were then rocked gently to mix. • 8) Lentiviral packaging. […] They were centrifuged or filtered to remove cellular debris, using a filter of cellulose acetate or polysulfone, not nitrocellulose. • 10) Virus production was verified and can be quantified using Lenti-X GoStix™ Plus or any other standard methodology. Then, the virus can be used to transduce target cells or stored at −80° C. • 11) Next, for each viral production condition (e.g., different cyclic peptide packaging conditions, CP dosages, and controls), a three order of magnitude serial dilution at 10-fold dilution steps was performed. • 12) All viral samples were then transduced, harboring a GFP transgene, into fresh HEK293 cells. • 13) After 3 days, the transduced cells were collected, and analyzed them by flow cytometry (see FIG. 26). • 14) Finally, the biological titer (flow cytometry) and physical titer (GoStix) were normalized to the no-CP control to determine the fold improvements in both viral titer and infectiousness. […]

[3] = system: Lentivirus; assay: Lentivirus biological titer (flow cytometry of transduced HEK293 cells) after packaging with a CP generator plasmid; assay type: cell-based; settings: for lentiviral biological (transduction unit) titer, fold difference to control: FIG. 25, generator plasmid 0.5, 5, 50 ng, HEK293 cells
Experimental: as §1
FIG. 26. Exemplary representative flow cytometry raw data illustrating that when cyclic peptide CGSTKS (SEQ ID NO: 43) is present during lentiviral production, the biological titer increases by over 8-fold compared to when the cyclic peptide is absent. This figure depicts the raw flow cytometry data used to determine the biological titer of lentiviral samples. This is an example of the data that was used to determine the lentiviral biological titers in FIG. 25. The X-axis of each graph represents the forward light scattering (FSC) from flow cytometry. The Y-axis represents the GFP intensity of each cell. A 100-fold dilution of Lentivirus with a GFP payload produced either in the presence (A) or absence (B) of cyclic peptide were used to transduce HEK293 cells. A 100-fold dilution of the preparation was used (e.g., without physical titer normalization) to ensure a direct, batch-to-batch comparison of the impact of the cyclic peptide on viral packaging performance. • Part A—Flow cytometry raw data (with minor forward and side scatter gating to remove irrelevant particles) of HEK293 transduced with a lentiviral preparation produced in the presence of cyclic peptide CGSTKS (SEQ ID NO: 43) generated from a plasmid constructed transduced into packaging cells at 0.5 ng. • Part B—Flow cytometry raw data (with minor forward and side scatter gating to remove irrelevant particles) of HEK293 transduced with a lentiviral preparation produced without cyclic peptide.
This example illustrates methodologies for Cyclic peptide-enhanced lentiviral vector production. • 1) Cells were seeded at 4-5×10^6 cells per 10-cm plate, 24 hours prior to transfection, to achieve 80-90% confluence at the time of transfection. • 2) 7.0 μg of lentiviral vector plasmid DNA was diluted in sterile water to a volume of 600 μl along with a cyclic peptide generator that expresses a cyclic peptide. • 3) Titration of cyclic peptide plasmid DNA concentrations, from 0.5 ng to 50 ng, was used in this Example. […]

Substance	transduction efficiency of AAV2-GFP produced in the presence of CP [1]	lentiviral physical (particle) titer, fold difference to control [2]	lentiviral biological (transduction unit) titer, fold difference to control [3]	increase of lentiviral biological titer ([3]; FIG. 26, generator plasmid at 0.5 ng, 100-fold dilution on HEK293 cells, versus no CP)	increased transduction efficiency (TU:VG ratio) ([1]; FIG. 21 legend, data not shown) [×]
CCRPH: engineered cyclic peptide, printed as SEQ ID NO: 37	improvements in transduction efficiency	–	–	–	–
CGSTKS: engineered cyclic peptide, SEQ ID NO: 43 (also: cyclic, closure not given here)	–	unexpected degree of improvement	unexpected degree of improvement	over 8 fold	–
CKYEE: engineered cyclic peptide, SEQ ID NO: 40 (also: cyclic, closure not given here)	improvements in transduction efficiency	unexpected degree of improvement	unexpected degree of improvement	–	–
CPLQVP: engineered cyclic peptide, SEQ ID NO: 45 (also: cyclic, closure not given here)	–	unexpected degree of improvement	unexpected degree of improvement	–	–
CPYTD: engineered cyclic peptide, SEQ ID NO: 44 (also: cyclic, closure not given here)	–	unexpected degree of improvement	unexpected degree of improvement	–	–
CQVFQL: engineered cyclic peptide, SEQ ID NO: 42 (also: cyclic, closure not given here)	improvements in transduction efficiency	–	–	–	–
CRVSY: engineered cyclic peptide, SEQ ID NO: 41 (also: cyclic, closure not given here)	improvements in transduction efficiency	–	–	–	–
CSSLT: engineered cyclic peptide, SEQ ID NO: 37 (also: cyclic, closure not given here)	improvements in transduction efficiency	unexpected degree of improvement	unexpected degree of improvement	–	–
CTHKVS: engineered cyclic peptide, SEQ ID NO: 38 (also: cyclic, closure not given here)	improvements in transduction efficiency	–	–	–	–
CYNHAR: engineered cyclic peptide, SEQ ID NO: 35, corresponds to generator plasmid T2851-8 (cyclic; Cyclic peptide that was found to increase or decrease AAV viral titer in a dose-responsive manner.)	–	–	–	–	~2.4
